Data from patent US11179452B2, “Antigen specific multi epitope vaccines” (priority 2006, dated 2021).
No end group written: not given here.

Legend:
Format in all cases: cell-based, human
PBL [1] = test: Proliferation of PBL, direct presentation of peptide without APC; conditions: for Optimal dose Direct no APC: optimal dose required for PBL activation, six donors; for Optimal dose Direct no APC / Peak of Proliferation (Hours) Direct no APC: average of 5 experiments; for Peak of Proliferation (Hours) Direct no APC: visual inspection daily during 5 days
Method: In all three methods, plates were cultured for 3-5 days under visual control and then 0.5 □Cu/well of 3[H] (Amersham) was added for additional culture of to 18 h at 37° C. […] DC indirect presentation: In the first method, 100 µl of 2×10^6 thawed PBL were placed in U-shape Bottom 96 well plate (Nunc) with RPMI medium supplemented with 5% H AB serum, L-Glutamine, Sodium Pyruvate, MEM-EAGLE non-essential amino-acids, HEPES and Gentamycin. At the next stage 100 µl of 25×10^4 peptide-pulsed DC were added to each three wells of PBL and underwent proliferation analysis as described above. • 2. PBL direct presentation: In the 2nd method, 100 µl of 2×10^6 PBL were placed in Flat Bottom 96 well plates (Corning) and stimulated with different concentrations (0.05 ug/ml-2 ug/ml) of peptides. In the next step the cells underwent proliferation analysis as described above. • 3. PBMC direct presentation: In third method PNMC were used under similar conditions as described for the second method.
Direct presentation of peptides to PBL without any APC

PBL [2] = test: Proliferation of PBL, DC indirect presentation (peptide-pulsed autologous DC); conditions: for IS (as indicated in Table 12): two donors; for Optimal dose via DC: optimal dose required for PBL activation; for Optimal dose via DC / Peak of Proliferation (Hours) via DC: average of 5 experiments; for Optimal dose via DC / IS (SI of the peptides as indicated in Table 7): six donors; for Peak of Proliferation (Hours) via DC: visual inspection by light microscopy daily during 5 days; for IS (SI of the peptides as indicated in Table 7): one out of five experiments
Method: (§1) Human PBMC were separated from buffy coat samples of naive donors using Ficoll UNI-SEPmaxi tube. Separated cells were suspended in RPMI medium supplemented with 10% FCS, L-Glutamine, Sodium Pyruvate, MEM-EAGLE non-essential amino-acids, HEPES and Gentamycin Sulphate (Bet-Haemek Industries, IL) and cultivated for 4 h at 37° C. in a culture dish (Corning 150 mm×25 mm). Adherent cells were collected and cultured for 7 days in serum free DCCM-1 medium supplemented with L-Glutamine, huIL-4 (1000 IU/ml) (Cytolab IL) and GM-CSF-80 ug/ml (Cytolab IL). On day seven floating cells were collected and loaded with 50 ug/ml of examined peptide for 18 h at 37° C.
(§2) Proliferation analysis was conducted in three different methods. In all three methods, plates were cultured for 3-5 days under visual control and then 0.5 […]Cu/well of 3[H] (Amersham) was added for additional culture of to 18 h at 37° C. In the last step, plates were harvested and the radioactive counts were measured in a □ counter. • 1. DC indirect presentation: In the first method, 100 µl of 2×10^6 thawed PBL were placed in U-shape Bottom 96 well plate (Nunc) with RPMI medium supplemented with 5% H AB serum, L-Glutamine, Sodium Pyruvate, MEM-EAGLE non-essential amino-acids, HEPES and Gentamycin. At the next stage 100 µl of 25×10^4 peptide-pulsed DC were added to each three wells of PBL and underwent proliferation analysis as described above. • 2. PBL direct presentation: In the 2nd method, 100 µl of 2×10^6 PBL were placed in Flat Bottom 96 well plates (Corning) and stimulated with different concentrations (0.05 ug/ml-2 ug/ml) of peptides. In the next step the cells underwent proliferation analysis as described above. • 3. PBMC direct presentation: In third method PNMC were used under similar conditions as described for the second method.
In the first set of experiments, the 21mer ImMucin, its different 9mer epitopes and other control epitopes (Table 3) were evaluated in proliferation assays with the aim of finding their optimal mode of presentation, stimulated dose as well as their peak of activity (time wise).
To evaluate the most efficient method for priming of PBLs with the different peptides, the following methods were compared:
a. In-direct presentation of the peptide via Autologues-pulsed DC
(§3) Five experiments were performed according to the protocol described in material and methods with buffy-coat enriched PBLs obtained from six different naive donors (obtained from the Israeli blood bank).

PBL [3] = test: ELISA of cytokine secretion by PBL stimulated once with peptide-pulsed DC
Method: as §1
(§4) Cytokine release was studied during the culture of stimulated T-cells. The evaluated samples were collected from the T cell culture medium on day 2, 3, and 5 and stored until use at −20° C.
(§5) […] of the selected capture antibody (e.g. anti-Hu IFN-Gamma, or anti-Hu TNF-alfa or anti IL-2) were added to each well at the final concentration of 5 μg/ml in PBS. Plates were incubated for 2 h at R.T. or over night at 4° C. Next, […] of blocking solution were added for an incubation of 2 h at R.T. […] of evaluated samples were added in duplicate into 2 wells for 2 hours at RT. After 2 h of incubation at R.T plates were washed λ4 times in washing solution. In the next step, a Biotin-conjugated detection antibody (relevant to coated antibody) was added at a final concentration of 10 μg/ml in total volume of 100 μl for 1 h at R.T. Finally, 100 μl/well working dilution (1:10000 in Blocker solution) of Streptavidin-HRP were added to each well and incubated for 1 h at R.T.
(§6) Plates were washed λ6 times with PBS-Tween (0.4%) and 100 μl/well of TMB/E Solution (CHEMICON, Catalog #ES001) was added. The plates were then exposed until blue color appeared in the wells of the positive control and no color was detected in the blank wells. To stop the color reaction, 50 μl/well of 10% of Sulfuric acid was added. The plates were counted in ELISA-Reader using a 450 nm filter.

[4] = tested on: lymphocytes from naive donors; test: Proliferation assay, kinetics of lymphocyte activation as summarised in text (presentation mode not stated); conditions: summary of five experiments
Method: as §2
A different parameter for assessing the properties of ImMucin and the other VXL-peptide epitopes is by analyzing the time until a maximal peak of activity occurs and the optimal dose for maximal stimulation. Maximal peak of PBL activation is determined when <50% of the PBLs appear in clumps. In these experiments, the kinetic (time) in the proliferation of lymphocytes from the six naive donors stimulated at a fix dose of 0.05-1 ug/ml by ImMucin and other VXL-Peptides, was observed.

PBMC = test: Proliferation, direct presentation of peptide via PBMC (monocytes); conditions: for PBL Index of stimulation (SI) via PBMC: naive donors, representative of 5 experiments; for Optimal dose via PBMC: optimal dose required for PBL activation, six donors; for Optimal dose via PBMC / Peak of Proliferation (Hours) via PBMC: average of 5 experiments; for Peak of Proliferation (Hours) via PBMC: visual inspection daily during 5 days
Method: as §2
b. Direct presentation of the peptides via PBMC i.e. monocytes
as §3

[5] = tested on: ImMucin specific T-cell subpopulation; test: Proliferation of the ImMucin-specific T-cell subpopulation after three stimulations; conditions: one out of two experiments, four donors
Text: (§7) Thawed PBLs underwent 1st stimulation with ImMucin pulsed Autologues DC at a ratio of 20:1 and cultured for 7 days in dedicated T cell Medium. T cell medium contained RPMI medium supplemented with 10% FCS, L-Glutamine, Sodium Pyruvate, MEM-EAGLE non-essential amino-acids, HEPES and Gentamycin Sulphate (Bet-Haemek Industries, IL) as well as with 50 IU/ml of recombinant IL-7 (Cytolab IL). For the second stimulation, PBL were transferred to adherent autologues ImMucin-pulsed PBMC and cultured for additional 5 days in T cell Medium. At the end of the 5 days, medium was partial replaced with fresh medium containing 1 ug/ml of ImMucin and 50 IU/ml IL-2 for a third stimulation of 48 h at 37° C. Following the last stimulation ImMucin T cell line was checked for immune activation properties.
as §2
(§8) For that purpose, an enriched ImMucin-specific T cell subpopulation was produced via repeated stimulation with ImMucin. The specificity of the subpopulation for ImMucin, as well as to the other VXL epitopes, was examined using proliferation assays, cytokine release assays, FACS analysis in which the percentage and type of cells enriched during the enrichment process was analyzed, and using a CTL assay against selected target cells.
(§9) For producing the specific T cell subpopulation PBL were stimulated three times for 7, 5 and 2 days with ImMucin presented via DC and PBMC. Following the 3rd stimulation the cells were evaluated against the different VXL epitopes.

[6] = tested on: T-Cell specific subpopulation (Clones); test: ELISA of cytokine secretion by the T-cell specific subpopulation (clones) stimulated with peptides; conditions: two experiments, four donors
Text: as §7, §4, §5, §6, §8, §9

[7] = average of two healthy donors (Table 11)
[8] = peptide pulsed DC ratio 16:1, one out of two experiments, two donors (Table 12)
[9] = naive donors, representative of 5 experiments
[10] = naive donors, CPM sample / CPM control, representative of 5 experiments
[11] = peptide DC ratio 16:1, one out of five experiments, six donors

Row | Compound | PBL Index of stimulation (SI) Direct no APC (PBL [1]; [7]) | PBL Index of stimulation (SI) Direct no APC (PBL [1]; [9]) | Optimal dose Direct no APC (PBL [1]) | Peak of Proliferation (Hours) Direct no APC (PBL [1]) | PBL Index of stimulation (SI) via DC (PBL [2]; [10]) | Optimal dose via DC (PBL [2]) | Peak of Proliferation (Hours) via DC (PBL [2]) | PBL Index of stimulation (SI) via PBMC (PBMC) | Optimal dose via PBMC (PBMC) [µg/mL] | Peak of Proliferation (Hours) via PBMC (PBMC) | PBL Index of stimulation (SI) via DC (PBL [2]; [7]) | IS (Average) [5] | IS (Range) [5] | IL-2 % of clones [6] [%] | IL-2 Range [6] [ng/mL] | INF-gamma % of clones [6] [%] | INF-gamma Range [6] [ng/mL] | TNF-Alfa % of clones [6] [%] | TNF-Alfa Range [6] [ng/mL] | IFN-gamma (PBL [3]; [11]) [ng/mL] | other results
1 | MAARAVFLAL SAQLLQA (MAARAVFLALSAQLLQA; listed as Homo sapiens) [VXL-102, signal peptide vaccine derived from melanoma associated TAA BAGE] | 0 | – | – | – | – | – | – | – | – | – | – | – | – | – | – | – | – | – | – | – | IS (as indicated in Table 12) (PBL [2]): 1.9; TNF-Alfa (PBL [3]; [8]): 15.5 ng/mL
2 | ALCRWGLLL [VXL-8, reference compound] | – | 0 | No Influence | No proliferation | 1.75 | 12.5-25 × × 10e6/well | 120 h | 1.5 | 0.05 to 1 | 120 h | – | – | – | – | – | – | – | – | – | – | peak of proliferation / maximum stimulation [4]: 120 h
3 | PADREAGVAA WTLKAAA (PADREAGVAAWTLKAAA) [VXL-14, reference compound] | 0 | – | – | – | – | – | – | – | – | – | 2.94 | – | – | – | – | – | – | – | – | – | –
4 | CSCC[C@H](N)C(=O)N[C@@H](CC(C)C)C(=O)N[C@@H](CC(C)C)C(=O)N[C@@H](C)C(=O)N[C@H](C(=O)N[C@@H](CC(C)C)C(=O)N[C@@H](Cc1ccc(O)cc1)C(=O)N[C@@H](CS)C(=O)N[C@@H](CC(C)C)C(=O)O)C(C)C [VXL-11, MLLAVLYCL, reference compound] | – | 0 | No Influence | No proliferation | 1.65 | 12.5-25 × × 10e6/well | 96 h | 1.25 | 0.05 to 1 | 96 h | – | 1.14 | 1-1.28 | 0 | 0 | 33 | 2.2 to 4.7 | 0 | 0 | 0 | IS (SI of the peptides as indicated in Table 7) (PBL [2]): 1.65; IL-2 (PBL [3]; [11]): 0 ng/mL
5 | STPPVHNV [VXL-6, STPPVHNV, reference compound] | 0 | 0 | No Influence | No proliferation | 1.76 | 12.5-25 × × 10e6/well | 120 h | 1.53 | 0.05 to 1 | 120 h | 1.44 | 1.125 | 1-1.25 | 0 | 0 | 8.3 | 3.25 | 50 | 7.56 to 11.4 | 0 | IL-2 (PBL [3]; [11]): 0 ng/mL; TNF-Alfa (PBL [3]; [11]): 0 ng/mL
6 | TQSPFFLLL [VXL-4, TQSPFFLLL] | – | 0 | No Influence | No proliferation | 3.74 | 12.5-25 × × 10e6/well | 72-96 h^ | 1.45 | – | 72-96 h^ | – | 2.665 | 2.4-2.93 | 33 | 3.8 to 8.7 | 33 | 2.6 to 8.4 | 58 | 3.1 to 9.8 | 0 | IS (SI of the peptides as indicated in Table 7) (PBL [2]): 3.4; IL-2 Range ng/ml ([6]; listed as VXL4): high; INF-gamma Range ng/ml ([6]; listed as VXL4): high; IL-2 (PBL [3]; [11]): 0 ng/mL; TNF-Alfa (PBL [3]; [11]): 17.1 ng/mL; TNF-Alfa (PBL [3]; peptide DC ratio 16:1, one out of five experiments, six donors, listed as VXL4): highest cytokine release
7 | SPFFLLLLL [VXL-5, SPFFLLLLL] | – | 0 | No Influence | No proliferation | 3.73 | 12.5-25 × × 10e6/well | 48-72 h^ | 1.8 | – | 48-72 h^ | – | 3.575 | 2.75-4.4 | 0 | 0 | 33 | 2.75 to 5.5 | 50 | 3.84 to 9.2 | 0 | IS (SI of the peptides as indicated in Table 7) (PBL [2]): 3.74; TNF-Alfa (PBL [3]; [11]): 14.8 ng/mL; TNF-Alfa (PBL [3]; peptide DC ratio 16:1, one out of five experiments, six donors, listed as VXL5): highest cytokine release
8 | MWATQGLAVALALSVLPGSRA (MWATQGLAVALALSVLPGSRA; listed as Homo sapiens) [VXL-101, signal peptide vaccine derived from ARMET] | 0 | – | – | – | – | – | – | – | – | – | 2.8 | – | – | – | – | – | – | – | – | – | PBL Index of stimulation (SI) via DC (PBL [2]; average of two healthy donors (Table 11), listed as Armet): highest SI; IS (as indicated in Table 12) (PBL [2]): 2.8; IL-2 (PBL [3]; [8]): 0 ng/mL; TNF-Alfa (PBL [3]; [8]): 10.5 ng/mL
